Legend:
[1] = biological target: Adenosine A2A receptor (Tag-lite Adenosine A2A labeled cells) (Homo sapiens (Human), UniProt P29274); experiment: A2A Tag-lite HTRF Assay; format: binding; conditions: displacement of Adenosine A2A Receptor Red antagonist fluorescent ligand, 12.5 nM
Text: The final concentration of DMSO was 1%.

[2] = biological target: human adenosine A2B receptor (Homo sapiens (Human), UniProt P29275); experiment: Adenosine A2B Receptor Cyclic AMP GS Assay; format: cell-based; conditions: HEK-293 cells, agonist NECA at 12 nM, cAMP accumulation; read-out: A2B—cAMP_EC50
human adenosine A2B receptor, sequence (P29275 whole entry): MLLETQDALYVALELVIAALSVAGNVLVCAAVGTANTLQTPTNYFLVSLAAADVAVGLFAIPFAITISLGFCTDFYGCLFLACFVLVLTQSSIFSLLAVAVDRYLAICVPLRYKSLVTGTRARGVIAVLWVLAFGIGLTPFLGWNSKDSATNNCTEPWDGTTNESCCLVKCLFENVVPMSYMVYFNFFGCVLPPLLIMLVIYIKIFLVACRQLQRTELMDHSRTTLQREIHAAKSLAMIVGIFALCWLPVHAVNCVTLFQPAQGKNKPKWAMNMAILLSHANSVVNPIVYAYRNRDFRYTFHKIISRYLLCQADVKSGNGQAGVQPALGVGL
Description: Stably transfected HEK-293 cells expressing the human adenosine A2B receptor (Perkin Elmer) were maintained in MEM culture medium with 10% FBS and 100 μg/mL Geneticin (Life Technologies). 18 to 24 hours prior to assay, geneticin was removed from culture. The cisbio cAMP-GS Dynamic kit utilizing the FRET (Fluorescence Resonance Energy Transfer) technology was used to measure cAMP accumulation in the cells. Compounds of the present disclosure at an appropriate concentration were mixed with 10000 cells/well in white 96 well half area plates (Perkin Elmer) for 30 min at room temperature gently shaking. Agonist, NECA (R&D Technologies) at 12 nM was added to each well for 60 min at room temperature gently shaking. Detection reagents, d2-labeled cAMP (acceptor) and anti-cAMP cryptate (donor) were added to each well for 60 min at RT gently shaking. Plates were read on Pherastar (BMG Labtech), fluorescence ratio 665/620 was calculated and EC50 determination was performed by fitting the curve of percent of control versus the log of the compound concentration using GraphPad Prism.

Adenosine A2A receptor (Tag-lite Adenosine A2A labeled cells), sequence (P29274 whole entry): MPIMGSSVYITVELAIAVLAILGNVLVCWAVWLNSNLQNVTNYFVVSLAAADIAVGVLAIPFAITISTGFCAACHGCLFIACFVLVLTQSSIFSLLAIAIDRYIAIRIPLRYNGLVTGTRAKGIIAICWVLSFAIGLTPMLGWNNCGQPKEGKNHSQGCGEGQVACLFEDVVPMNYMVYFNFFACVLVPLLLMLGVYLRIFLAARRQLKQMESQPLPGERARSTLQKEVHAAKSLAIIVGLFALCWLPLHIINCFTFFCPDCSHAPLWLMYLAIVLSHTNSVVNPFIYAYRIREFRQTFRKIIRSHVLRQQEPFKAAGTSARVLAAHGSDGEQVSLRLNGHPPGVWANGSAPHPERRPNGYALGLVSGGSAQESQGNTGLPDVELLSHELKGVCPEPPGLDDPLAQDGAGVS

Structure (SMILES) | Ki [1] | EC50 [2]
CCn1nccc1-c1c(-c2cccc(C#N)c2)nc(N)c2nn(Cc3ncccc3F)nc12 [Example 33, 3-(4-amino-7-(1-ethyl-1H-pyrazol-5-yl)-2-((3-fluoropyridin-2-yl)methyl)-2H-[1,2,3]triazolo[4,5-c]pyridin-6-yl)benzonitrile] | ≤ 10 nM | ≤ 10 nM
CC(C)n1nccc1-c1c(-c2cccc(C#N)c2)nc(N)c2nn(Cc3ncccc3F)nc12 [Example 34, 3-(4-amino-2-((3-fluoropyridin-2-yl)methyl)-7-(1-isopropyl-1H-pyrazol-5-yl)-2H-[1,2,3]triazolo[4,5-c]pyridin-6-yl)benzonitrile] | ≤ 10 nM | ≤ 10 nM
Cn1nccc1-c1c(-c2cccc(C#N)c2)nc(N)c2nn(Cc3ncccc3F)nc12 [Example 35, 3-(4-amino-2-((3-fluoropyridin-2-yl)methyl)-7-(1-methyl-1H-pyrazol-5-yl)-2H-[1,2,3]triazolo[4,5-c]pyridin-6-yl)benzonitrile] | ≤ 10 nM | ≤ 10 nM
Cc1ncoc1-c1c(-c2cccc(C#N)c2)nc(N)c2nn(Cc3ncccc3F)nc12 [Example 36, 3-(4-amino-2-((3-fluoropyridin-2-yl)methyl)-7-(4-methyloxazol-5-yl)-2H-[1,2,3]triazolo[4,5-c]pyridin-6-yl)benzonitrile] | ≤ 10 nM | ≤ 10 nM
N#Cc1cccc(-c2nc(N)c3nn(Cc4ncccc4F)nc3c2-c2ccc3nccnc3c2)c1 [Example 37, 3-(4-amino-2-((3-fluoropyridin-2-yl)methyl)-7-(quinoxalin-6-yl)-2H-[1,2,3]triazolo[4,5-c]pyridin-6-yl)benzonitrile] | ≤ 10 nM | 10 to 100 nM
CCn1nccc1-c1c(-c2cccc(C#N)c2F)nc(N)c2nn(Cc3ccccn3)nc12 [Example 38, 3-(4-amino-7-(1-ethyl-1H-pyrazol-5-yl)-2-(pyridin-2-ylmethyl)-2H-[1,2,3]triazolo[4,5-c]pyridin-6-yl)-2-fluorobenzonitrile] | ≤ 10 nM | ≤ 10 nM
Cn1nccc1-c1c(-c2cccc(C#N)c2F)nc(N)c2nn(Cc3ccccn3)nc12 [Example 39, 3-(4-amino-7-(1-methyl-1H-pyrazol-5-yl)-2-(pyridin-2-ylmethyl)-2H-[1,2,3]triazolo[4,5-c]pyridin-6-yl)-2-fluorobenzonitrile] | ≤ 10 nM | ≤ 10 nM
CC(C)n1nccc1-c1c(-c2cccc(C#N)c2F)nc(N)c2nn(Cc3ccccn3)nc12 [Example 40, 3-(4-amino-7-(1-isopropyl-1H-pyrazol-5-yl)-2-(pyridin-2-ylmethyl)-2H-[1,2,3]triazolo[4,5-c]pyridin-6-yl)-2-fluorobenzonitrile] | ≤ 10 nM | ≤ 10 nM
Cc1ncoc1-c1c(-c2cccc(C#N)c2F)nc(N)c2nn(Cc3ccccn3)nc12 [Example 41, 3-(4-amino-7-(4-methyloxazol-5-yl)-2-(pyridin-2-ylmethyl)-2H-[1,2,3]triazolo[4,5-c]pyridin-6-yl)-2-fluorobenzonitrile] | ≤ 10 nM | ≤ 10 nM
Cc1nc(CO)c(-c2c(-c3cccc(C#N)c3F)nc(N)c3nn(Cc4ccccn4)nc23)o1 [Example 42, 3-(4-amino-7-(4-(hydroxymethyl)-2-methyloxazol-5-yl)-2-(pyridin-2-ylmethyl)-2H-[1,2,3]triazolo[4,5-c]pyridin-6-yl)-2-fluorobenzonitrile] | ≤ 10 nM | 10 to 100 nM
N#Cc1cccc(-c2nc(N)c3nn(Cc4ccccn4)nc3c2-c2ccc3nccnc3c2)c1F [Example 43, 3-(4-amino-2-(pyridin-2-ylmethyl)-7-(quinoxalin-6-yl)-2H-[1,2,3]triazolo[4,5-c]pyridin-6-yl)-2-fluorobenzonitrile] | ≤ 10 nM | 100 to 1000 nM
Cn1ccc(Cn2nc3c(N)nc(-c4cccc(C#N)c4)c(-c4ccncn4)c3n2)n1 [Example 44, 3-(4-amino-2-((1-methyl-1H-pyrazol-3-yl)methyl)-7-(pyrimidin-4-yl)-2H-[1,2,3]triazolo[4,5-c]pyridin-6-yl)benzonitrile] | ≤ 10 nM | ≤ 10 nM
Cc1ncoc1-c1c(-c2cccc(C#N)c2)nc(N)c2nn(Cc3ccn(C)n3)nc12 [Example 45, 3-(4-amino-2-((1-methyl-1H-pyrazol-3-yl)methyl)-7-(4-methyloxazol-5-yl)-2H-[1,2,3]triazolo[4,5-c]pyridin-6-yl)benzonitrile] | ≤ 10 nM | ≤ 10 nM
Cc1ncoc1-c1c(-c2cccc(C#N)c2)nc(N)c2nn(C(C)c3ccccn3)nc12 (stereo not shown) [Example 46, 3-(4-amino-7-(4-methyloxazol-5-yl)-2-(1-(pyridin-2-yl)ethyl)-2H-[1,2,3]triazolo[4,5-c]pyridin-6-yl)benzonitrile] | ≤ 10 nM | ≤ 10 nM
CC(c1ccccn1)n1nc2c(N)nc(-c3cccc(C#N)c3)c(-c3ccncn3)c2n1 (stereo not shown) [Example 47, 3-(4-amino-2-(1-(pyridin-2-yl)ethyl)-7-(pyrimidin-4-yl)-2H-[1,2,3]triazolo[4,5-c]pyridin-6-yl)benzonitrile] | ≤ 10 nM | 100 to 1000 nM
Cc1ncoc1-c1c(-c2cccc(C#N)c2)nc(N)c2nn(CCc3ccccn3)nc12 [Example 48, 3-(4-amino-7-(4-methyloxazol-5-yl)-2-(2-(pyridin-2-yl)ethyl)-2H-[1,2,3]triazolo[4,5-c]pyridin-6-yl)benzonitrile] | ≤ 10 nM | 10 to 100 nM
Cc1ncoc1-c1c(-c2cccc(C#N)c2F)nc(N)c2nn(CCc3ccccn3)nc12 [Example 49, 3-(4-amino-7-(4-methyloxazol-5-yl)-2-(2-(pyridin-2-yl)ethyl)-2H-[1,2,3]triazolo[4,5-c]pyridin-6-yl)-2-fluorobenzonitrile] | ≤ 10 nM | 10 to 100 nM

— US11390624B2, “Pyrazolopyridines and triazolopyridines as A2A / A2B inhibitors” (Incyte Corporation, priority 2019, dated 2022)
